Target: T1, Kir3.1/3.4 (Rattus norvegicus, UniProt P48548+P63251)
T1 construct: expressed in transfected cells
T1 sequence (P63251 1-501): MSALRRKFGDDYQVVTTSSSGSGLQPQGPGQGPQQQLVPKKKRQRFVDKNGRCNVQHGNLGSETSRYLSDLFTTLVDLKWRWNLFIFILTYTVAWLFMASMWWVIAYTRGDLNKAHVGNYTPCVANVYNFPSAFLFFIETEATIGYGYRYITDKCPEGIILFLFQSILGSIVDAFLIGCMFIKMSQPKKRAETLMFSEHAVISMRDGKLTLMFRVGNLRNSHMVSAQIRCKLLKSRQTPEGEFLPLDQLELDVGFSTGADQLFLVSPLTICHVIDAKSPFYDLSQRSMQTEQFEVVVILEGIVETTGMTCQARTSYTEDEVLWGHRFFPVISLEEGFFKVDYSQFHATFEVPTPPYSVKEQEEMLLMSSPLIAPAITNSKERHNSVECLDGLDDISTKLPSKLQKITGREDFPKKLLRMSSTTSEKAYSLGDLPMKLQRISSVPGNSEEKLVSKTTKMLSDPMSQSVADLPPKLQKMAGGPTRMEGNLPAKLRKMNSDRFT
T1 sequence (P48548 1-419): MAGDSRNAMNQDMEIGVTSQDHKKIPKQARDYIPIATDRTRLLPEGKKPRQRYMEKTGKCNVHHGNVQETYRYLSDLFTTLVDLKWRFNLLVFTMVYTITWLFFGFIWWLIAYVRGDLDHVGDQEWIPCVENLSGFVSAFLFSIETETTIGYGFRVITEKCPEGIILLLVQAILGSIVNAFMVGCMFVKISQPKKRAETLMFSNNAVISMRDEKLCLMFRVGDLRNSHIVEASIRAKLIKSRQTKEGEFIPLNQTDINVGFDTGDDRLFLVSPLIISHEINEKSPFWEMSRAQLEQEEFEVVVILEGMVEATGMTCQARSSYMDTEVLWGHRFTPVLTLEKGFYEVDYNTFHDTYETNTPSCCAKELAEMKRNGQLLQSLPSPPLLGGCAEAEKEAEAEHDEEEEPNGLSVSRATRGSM
Assay: Kir3.1/3.4 Electrophysiology Method (manual whole-cell patch clamp)
Assay type: cell-based
Settings: Electrophysiology Method (TABLE 1)
Outline: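 Percent inhibition is relative to the pre-drug current, both leak-subtracted using a potassium-free bather, taken as the mean current at −140 mV. The protocol was a step to +60 mV, a ramp to −140 mV, then a return to −60 mV holding, every 10 s. Cells were rat Kir3.1/3.4-transfected HEK293 recorded by whole-cell patch clamp.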

Row | Compound | IC50
1 | CN1CCN(c2nc(N3CCC(CN4CCCC(N(C)C)C4)CC3)c3c(-c4ccccc4)csc3n2)CC1 (stereo not drawn) [Example 115] | < 500 nM
2 | Fc1ccc(C2CCN(CC3CCN(c4ncnc5scc(-c6ccccc6)c45)CC3)C2)cc1 (stereo not drawn) [Example 70, 4-[4-[[3-(4-fluorophenyl)pyrrolidin-1-yl]methyl]-1-piperidyl]-5-phenyl-thieno[2,3-d]pyrimidine] | < 500 nM
3 | N-methyl-5-phenyl-thieno[2,3-d]pyrimidine-6-carboxamide [Example 343] | 500 to 3000 nM
4 | OCC1CC2CCC(C1)N2c1nc(N2CCOCC2)c2c(-c3ccccc3)csc2n1 (stereo not drawn) [Example 165, [8-(4-morpholino-5-phenyl-thieno[2,3-d]pyrimidin-2-yl)-8-azabicyclo[3.2.1]octan-3-yl]methanol] | 500 to 3000 nM
5 | CC(C)NC(=O)c1sc2ncnc(N3C4CCC3CC(N3CCCC3)C4)c2c1-c1ccccc1 (stereo not drawn) [Example 354] | < 500 nM
6 | CN(C)[C@@H]1CCN(CC2CCN(c3ncnc4scc(-c5ccccc5)c34)CC2)C1 [Example 81, (3R)-N,N-dimethyl-1-[[1-(5-phenylthieno[2,3-d]pyrimidin-4-yl)-4-piperidyl]methyl]pyrrolidin-3-amine] | < 500 nM
7 | CC1CCC(C)N1CC1CCN(c2ncnc3scc(-c4ccccc4)c23)CC1 (stereo not drawn) [Example 98, 4-[4-[(2,5-dimethylpyrrolidin-1-yl)methyl]-1-piperidyl]-5-phenyl-thieno[2,3-d]pyrimidine] | 500 to 3000 nM
8 | CN(CC1CCN(c2ncnc3scc(-c4ccccc4)c23)CC1)CC1CCCN1 (stereo not drawn) [Example 83, N-methyl-1-[1-(5-phenylthieno[2,3-d]pyrimidin-4-yl)-4-piperidyl]-N-(pyrrolidin-2-ylmethyl)methanamine] | < 500 nM
9 | c1ccc(-c2csc3ncnc(N4CCC(CNCCC5CCCO5)CC4)c23)cc1 (stereo not drawn) [Example 102] | < 500 nM
10 | c1ccc(-c2csc3ncnc(N4CCC(COC5CCOC5)CC4)c23)cc1 (stereo not drawn) [Example 16, 5-phenyl-4-[4-(tetrahydrofuran-3-yloxymethyl)-1-piperidyl]thieno[2,3-d]pyrimidine] | 500 to 3000 nM
11 | c1ccc(-c2csc3ncnc(N4C5CCC4CC(OCCN4CCCC4)C5)c23)cc1 (stereo not drawn) [Example 289] | < 500 nM
12 | FC(F)(F)Oc1ccccc1-c1csc2ncnc(N3C4CCC3CC(NC3CCC3)C4)c12 (stereo not drawn) [Example 341] | < 500 nM
13 | 5-phenyl-thieno[2,3-d]pyrimidine-2-carbonitrile [Example 338] | < 500 nM
14 | CCc1c(C)sc2ncnc(N3CCC(COCCC4CCCN4C)CC3)c12 (stereo not drawn) [Example 24, 5-ethyl-6-methyl-4-[4-[2-(1-methylpyrrolidin-2-yl)ethoxymethyl]-1-piperidyl]thieno[2,3-d]pyrimidine] | < 500 nM
15 | FC(F)(F)c1nc(N2C3CCC2CC(NC2CCC2)C3)c2c(-c3ccccc3)csc2n1 (stereo not drawn) [Example 359] | < 500 nM
16 | NC(=O)[C@@H]1CCCN1CC1CCN(c2ncnc3scc(-c4ccccc4)c23)CC1 [Example 106] | < 500 nM
17 | c1ccc(-c2csc3ncnc(N4[C@@H]5CC[C@H]4CC(COCCN4CCCC4)C5)c23)cc1 (stereo partly drawn) [Example 164, 5-phenyl-4-[(1S,5R)-3-(2-pyrrolidin-1-ylethoxymethyl)-8-azabicyclo[3.2.1]octan-8-yl]thieno[2,3-d]pyrimidine] | < 500 nM
18 | CC(C)NCC1CC2CCC(C1)N2c1ncnc2scc(-c3ccccc3)c12 (stereo not drawn) [Example 334] | < 500 nM
19 | c1ccc(-c2csc3ncnc(N4CCC(COCCN5CCCC5)CC4)c23)cc1 [Example 5, 5-phenyl-4-[4-(2-pyrrolidin-1-ylethoxymethyl)-1-piperidyl]thieno[2,3-d]pyrimidine] | < 500 nM
20 | CN(C)C1CCCN(CC2CCN(c3nc(N4CCC(C(N)=O)C4)nc4scc(-c5ccccc5)c34)CC2)C1 (stereo not drawn) [Example 123] | < 500 nM
21 | CN(C)C1CCN(CC2CCN(c3ncnc4scc(-c5ccccc5)c34)CC2)CC1 [Example 75, N,N-dimethyl-1-[[1-(5-phenylthieno[2,3-d]pyrimidin-4-yl)-4-piperidyl]methyl]piperidin-4-amine] | < 500 nM
22 | CCN1CCCC1CCN(C)CC1CCN(c2ncnc3scc(-c4ccccc4)c23)CC1 (stereo not drawn) [Example 87, 2-(1-ethylpyrrolidin-2-yl)-N-methyl-N-[[1-(5-phenylthieno[2,3-d]pyrimidin-4-yl)-4-piperidyl]methyl]ethanamine] | < 500 nM
23 | COc1ncccc1-c1csc2ncnc(N3C4CCC3CC(CO)C4)c12 (stereo not drawn) [Example 365] | 500 to 3000 nM
24 | COc1ncccc1-c1csc2ncnc(N3C4CCC3CC(N(C)C3CCC3)C4)c12 (stereo not drawn) [Example 351, N-cyclobutyl-8-[5-(2-methoxy-3-pyridyl)thieno[2,3-d]pyrimidin-4-yl]-N-methyl-8-azabicyclo[3.2.1]octan-3-amine] | < 500 nM
25 | CN(C)C1CCCN(CC2CCN(c3nc(NCCN4CCCC4)nc4scc(-c5ccccc5)c34)CC2)C1 (stereo not drawn) [Example 117] | < 500 nM
26 | CC(NC1CC1)C1CCN(c2ncnc3scc(-c4ccccc4)c23)CC1 (stereo not drawn) [Example 96, N-[1-[1-(5-phenylthieno[2,3-d]pyrimidin-4-yl)-4-piperidyl]ethyl]cyclopropanamine] | < 500 nM
27 | COc1ncccc1-c1csc2ncnc(N3C4CCC3CC(NC3CCC3)C4)c12 (stereo not drawn) [Example 345] | < 500 nM
28 | COCC1CCN(c2nc(N3C4CCC3CC(O)C4)nc3scc(-c4ccccc4)c23)CC1 (stereo not drawn) [Example 299] | 500 to 3000 nM

Now from value to compound:

Row | IC50 | Compound
29 | < 500 nM | CN1CCC(N(C)CC2CCN(c3nc(N4CCC(C(N)=O)CC4)nc4scc(-c5ccccc5)c34)CC2)C1 (stereo not drawn) [Example 239]
30 | < 500 nM | CC(=O)Nc1sc2ncnc(N3CCC(COCCN4CCCC4)CC3)c2c1-c1ccccc1 [Example 162, N-[5-phenyl-4-[4-(2-pyrrolidin-1-ylethoxymethyl)-1-piperidyl]thieno[2,3-d]pyrimidin-6-yl]acetamide]
31 | < 500 nM | C[C@@H](CN(C)C)OCC1CCN(c2ncnc3scc(-c4ccccc4)c23)CC1 [Example 254]
32 | 500 to 3000 nM | O=C(NCCN1CCCC1)C1CCN(c2ncnc3scc(-c4ccccc4)c23)CC1 [Example 267]
33 | 500 to 3000 nM | OCCN(CCO)CC1CCN(c2ncnc3scc(-c4ccccc4)c23)CC1 [Example 186]
34 | < 500 nM | CNC(=O)C1CCCN(c2nc(N3CCC(CN(C)C4CCN(C)C4)CC3)c3c(-c4ccccc4)csc3n2)C1 (stereo not drawn) [Example 227]
35 | < 500 nM | COCC1CCN(c2nc(N(C)C3CCN(C)C3)nc3scc(-c4ccccc4)c23)CC1 (stereo not drawn) [Example 193]
36 | < 500 nM | CC(C)c1csc2nc(N3CCC(COCCN4CCCC4)CC3)ncc12 [Example 157]
37 | < 500 nM | Cc1sc2ncnc(N3CCC(CNCCC4CCCN4C)CC3)c2c1C (stereo not drawn) [Example 220]
38 | < 500 nM | Cc1sc2ncnc(N3CCC(CNCCC4CCCCN4C)CC3)c2c1C (stereo not drawn) [Example 233]
39 | < 500 nM | c1ccc(-c2csc3ncnc(N4CCC(OCCCN5CCCC5)CC4)c23)cc1 [Example 296]
40 | < 500 nM | CC(C)C(=O)Nc1sc2nc(N3CCC(COCCN4CCCC4)CC3)ncc2c1-c1ccccc1 [Example 304]
41 | < 500 nM | Cc1sc2ncnc(N3CCC(CN4CCCC(N(C)C)C4)CC3)c2c1C (stereo not drawn) [Example 234]
42 | < 500 nM | CN(C)CCCNCC1CCN(c2ncnc3scc(-c4ccccc4)c23)CC1 [Example 217]
43 | < 500 nM | CN1CCCC1CCNCC1CN(c2ncnc3scc(-c4ccccc4)c23)C1 (stereo not drawn) [Example 219]
44 | 500 to 3000 nM | CC(=O)Nc1sc2nc(N3CCC(COCCN4CCCC4)CC3)ncc2c1-c1ccccc1 [Example 155, N-[5-phenyl-2-[4-(2-pyrrolidin-1-ylethoxymethyl)-1-piperidyl]thieno[2,3-d]pyrimidin-6-yl]acetamide]
45 | < 500 nM | CC(C)Oc1ncccc1-c1csc2ncnc(N3CCC(COCCN4CCCC4)CC3)c12 [Example 328]
46 | < 500 nM | CC(C)NC(=O)c1sc2ncnc(N3CCC(COCCN4CCCC4)CC3)c2c1-c1ccccc1 [Example 139, N-isopropyl-5-phenyl-4-[4-(2-pyrrolidin-1-ylethoxymethyl)-1-piperidyl]thieno[2,3-d]pyrimidine-6-carboxamide]
47 | < 500 nM | Fc1ccc(-c2csc3nc(Cl)nc(N4CCC(COCCN5CCCC5)CC4)c23)cc1 [Example 279]
48 | < 500 nM | N#Cc1sc2nccc(N3CCC(COCCN4CCCC4)CC3)c2c1-c1ccccc1 [Example 144]
49 | < 500 nM | CC(=O)NC1CCN(c2nc(N3CCC(CN(C)C4CCN(C)C4)CC3)c3c(-c4ccccc4)csc3n2)C1 (stereo not drawn) [Example 226]
50 | < 500 nM | CC(C)NCC1CCN(c2ncnc3scc(-c4ccccc4)c23)CC1 [Example 187]
51 | < 500 nM | CCN(CC)C(=O)C1CCCN(CC2CCN(c3ncnc4scc(-c5ccccc5)c34)CC2)C1 (stereo not drawn) [Example 246]

From patent US9290511B2, “Thieno-pyrimidines, useful as potassium channel inhibitors” (XENTION LIMITED, priority 2011, dated 2016)
